Test system: Plasmodium berghei
Test: Luciferase/luciferin-expressing antifolate-resistant parasites were used to infect a culture of HepG2 cells that were pre-incubated with compounds. Infected hepatocytes emit light due to the luciferase reaction. Assay results are presented as the percent inhibition of light emission compared to control. […]
Assay type: functional
Conditions: sporozoite; for IC90: read-out: LUCIFERASE INFECTION ASSAY - IC90
[1] = read-out: LUCIFERASE INFECTION ASSAY - IC50

SMILES | IC50 [1] [µM] | IC90 [µM] | other results
O=C(COC(=O)c1cccnc1Cl)NCCc1ccc(F)cc1 | > 10 | > 10 | 
CCCNC(=O)C1(C)CCN(CCCC(=O)c2ccc(C)c(C)c2)C1 (stereo unspecified) | > 9.58 | > 9.58 | 
NC(=O)c1ccsc1NC(=O)COC(=O)c1ccc2c(c1Cl)C(=O)c1ccccc1C2=O | > 10 | > 10 | 
Cn1c(SCC#N)nnc1-c1ccc(C(C)(C)C)cc1 |  | 1.34 | IC50 (PBLUC_HILL_SLOPE 23.6, PBLUC_R_SQUARED 0.364, read-out: LUCIFERASE INFECTION ASSAY - IC50): 1.22 µM
CCCn1c(NC(=O)c2cccnc2SC)nc2ccccc21 |  | > 10 | IC50 (PBLUC_HILL_SLOPE 14.8, PBLUC_R_SQUARED 0.146, read-out: LUCIFERASE INFECTION ASSAY - IC50): 9.22 µM
CCOC(=O)c1ccc(N2CCN(C(C)c3nc(C(C)C)no3)CC2)nc1 (stereo unspecified) |  | > 10 | IC50 (HEPG2TOX_HILL_SLOPE 2.09, HEPG2TOX_R_SQUARED 0.987, PBLUC_HILL_SLOPE 1.97, PBLUC_R_SQUARED 0.365, read-out: LUCIFERASE INFECTION ASSAY - IC50): 4.25 µM
S=C(NCc1ccc(Cl)c(Cl)c1)Nc1cccnc1 | > 10.6 | > 10.6 | 
c1cc2[nH]c(-c3ccsc3)cc2c(Nc2ccc(N3CCOCC3)cc2)n1 |  | > 10 | IC50 (PBLUC_HILL_SLOPE 2.04, PBLUC_R_SQUARED 0.351, read-out: LUCIFERASE INFECTION ASSAY - IC50): 6.37 µM
N#CCCn1cc(/C=N/Nc2nc3ccccc3s2)c(-c2ccc(F)cc2)n1 | > 10 | > 10 | 
Cc1cc(=O)n2nc(CSc3ncc(-c4ccccc4)n3-c3c(C)cccc3C)sc2n1 | 2.38 | 5.16 | 
Oc1cccc(-c2cnc3cnc(-c4ccc(Cl)cc4Cl)cn23)c1 |  | 2.14 | IC50 (HEPG2TOX_HILL_SLOPE 1.62, HEPG2TOX_R_SQUARED 0.949, PBLUC_HILL_SLOPE 1.81, PBLUC_R_SQUARED 0.693, read-out: LUCIFERASE INFECTION ASSAY - IC50): 0.634 µM
Cc1ccc(NC(=S)NCc2ccccn2)cc1C | > 12.2 | > 12.2 | 
Cc1ccc(C2=NN(C(=O)Cn3nc(C)c(S(=O)(=O)N(C)C)c3C)C(c3ccco3)C2)cc1 (stereo unspecified) |  | > 10 | IC50 (FFLUC_HILL_SLOPE 21, FFLUC_R_SQUARED 0.497, read-out: LUCIFERASE INFECTION ASSAY - IC50): > 10 µM
O=C(O)c1ccc(Cl)cc1Oc1ccccc1 |  | > 13.3 | IC50 (FFLUC_HILL_SLOPE 1.52, FFLUC_R_SQUARED 0.302, read-out: LUCIFERASE INFECTION ASSAY - IC50): > 13.3 µM
Cc1nc(N2N=C3/C(=C/c4ccc(F)cc4)CCCC3C2c2ccc(F)cc2)sc1C(=O)O (stereo unspecified) |  | > 10 | IC50 (FFLUC_HILL_SLOPE 19.4, FFLUC_R_SQUARED 0.522, read-out: LUCIFERASE INFECTION ASSAY - IC50): > 10 µM
Cc1ccc(NC(=O)c2[nH]nc3c2CCCC3)cc1Cl |  | > 2 | IC50 (PBLUC_HILL_SLOPE 0.552, PBLUC_R_SQUARED 0.432, read-out: LUCIFERASE INFECTION ASSAY - IC50): 0.0735 µM
C=CCNC(=O)COc1ccc2c(=O)c(-c3ccc(Cl)cc3)c(C)oc2c1 | > 8.6 | > 8.6 | 
CCOC(/C=C1\Sc2c(ccc3c2CCCC3)N1CC)=C1/SC(=S)N(CC)C1=O | > 10 | > 10 | 
CC(C)(C)C(=O)c1sc2c(c1N)c(=O)[nH]c(=O)n2C1CCCCC1 |  | 3.47 | IC50 (PBLUC_HILL_SLOPE 15.3, PBLUC_R_SQUARED 0.0878, read-out: LUCIFERASE INFECTION ASSAY - IC50): 3.01 µM
CS(=O)(=O)c1ccc(C(=O)Nc2ccc(S(=O)(=O)NCc3ccco3)cc2)cc1[N+](=O)[O-] |  | > 10 | IC50 (HEPG2TOX_HILL_SLOPE 11.7, HEPG2TOX_R_SQUARED 0.595, read-out: LUCIFERASE INFECTION ASSAY - IC50): > 10 µM
Cc1c(CN2CCN(c3ccccn3)CC2)noc1-c1ccc(F)cc1 |  | 3.45 | IC50 (PBLUC_HILL_SLOPE 83.7, PBLUC_R_SQUARED 0.475, read-out: LUCIFERASE INFECTION ASSAY - IC50): 3.36 µM
Cc1ccc(OCC(=O)NS(=O)(=O)c2ccccc2)cc1 | > 10.8 | > 10.8 | 

SMILES | IC50 [1] [µM] | IC90 [µM] | other results
Cc1ccc(-c2cnc3ccc(NCc4cccs4)nn23)cc1 |  | > 10.3 | IC50 (PBLUC_HILL_SLOPE 1.88, PBLUC_R_SQUARED 0.642, read-out: LUCIFERASE INFECTION ASSAY - IC50): 4.8 µM
C=CCNC(=S)N1N=C2/C(=C/c3ccc(OCC)cc3)CCCC2C1c1ccc(OCC)cc1 (stereo unspecified) |  | > 10 | IC50 (HEPG2TOX_HILL_SLOPE 0.856, HEPG2TOX_R_SQUARED 0.318, PBLUC_HILL_SLOPE 2.55, PBLUC_R_SQUARED 0.497, read-out: LUCIFERASE INFECTION ASSAY - IC50): 4.45 µM
COc1ccc2oc(C(=O)Nc3nnc(C(C)C)s3)c(C)c2c1 | 4.49 | > 10 | 
COCC(C)NC(=O)c1cccnc1-c1nc2ccccc2s1 (stereo unspecified) | > 10.1 | > 10.1 | 
Cc1nn(-c2ccccc2)c2c1C(C(F)(F)F)(C(F)(F)F)OC(c1cccc(S(=O)(=O)N3CCCCC3)c1)=N2 | > 10 | > 10 | 
COc1ccc(-c2nnc(SC(C)C(=O)NCCC3=CCCCC3)[nH]2)cc1 (stereo unspecified) |  | 0.379 | IC50 (HEPG2TOX_HILL_SLOPE 1.28, HEPG2TOX_R_SQUARED 0.906, PBLUC_HILL_SLOPE 22.1, PBLUC_R_SQUARED 0.622, read-out: LUCIFERASE INFECTION ASSAY - IC50): 0.343 µM
CCCCN(C)S(=O)(=O)c1ccc(NC(=O)c2cccc(C(F)(F)F)c2)cc1 |  | > 10 | IC50 (PBLUC_HILL_SLOPE 3.75, PBLUC_R_SQUARED 0.618, read-out: LUCIFERASE INFECTION ASSAY - IC50): 5.87 µM
c1csc(-c2cn3c(-c4ccncc4)cnc3cn2)c1 |  | > 11.9 | IC50 (PBLUC_HILL_SLOPE 5.41, PBLUC_R_SQUARED 0.452, read-out: LUCIFERASE INFECTION ASSAY - IC50): 10.5 µM
CCCn1c(C)cc(C(=O)COC(=O)C2=COCCO2)c1C |  | > 10 | IC50 (FFLUC_HILL_SLOPE 0.919, FFLUC_R_SQUARED 0.757, PBLUC_HILL_SLOPE 0.614, PBLUC_R_SQUARED 0.12, read-out: LUCIFERASE INFECTION ASSAY - IC50): 0.839 µM
Cc1cc(NNC(=O)Nc2cccc(Cl)c2)nc2c1c(C)nn2C |  | > 9.57 | IC50 (HEPG2TOX_HILL_SLOPE 1.19, HEPG2TOX_R_SQUARED 0.796, PBLUC_HILL_SLOPE 1.82, PBLUC_R_SQUARED 0.0269, read-out: LUCIFERASE INFECTION ASSAY - IC50): 5.86 µM
CCS(=O)(=O)c1ccc2oc(NC(=O)C3CCC3)nc2c1 | > 10 | > 10 | 
Cn1c(-c2ccccc2)nc2cnc(-c3cccc(Cl)c3)cc21 |  | 3.69 | IC50 (HEPG2TOX_HILL_SLOPE 2.23, HEPG2TOX_R_SQUARED 0.754, PBLUC_HILL_SLOPE 11.6, PBLUC_R_SQUARED 0.591, read-out: LUCIFERASE INFECTION ASSAY - IC50): 3.06 µM
COc1ccccc1C(=O)N(c1ccc(F)cc1)c1nc2ccccc2s1 | > 10 | > 10 | 
CC1S/C(=C\c2nc3ccccc3s2)NC1=O (stereo unspecified) |  | > 10 | IC50 (HEPG2TOX_HILL_SLOPE 1.83, HEPG2TOX_R_SQUARED 0.983, PBLUC_HILL_SLOPE 1.76, PBLUC_R_SQUARED 0.572, read-out: LUCIFERASE INFECTION ASSAY - IC50): 3.43 µM
O=C(CC1CCCC1)N1CCc2nc(NCc3cccc(Oc4ccccc4)c3)ncc2C1 |  | > 7.46 | IC50 (HEPG2TOX_HILL_SLOPE 6.79, HEPG2TOX_R_SQUARED 0.796, PBLUC_HILL_SLOPE 75.4, PBLUC_R_SQUARED 0.123, read-out: LUCIFERASE INFECTION ASSAY - IC50): 7.45 µM
COc1ccccc1CNC(=O)Nc1nc(C(N)Cc2ccc(C(F)(F)F)cc2)cs1 (stereo unspecified) |  | 7.12 | IC50 (PBLUC_HILL_SLOPE 20.8, PBLUC_R_SQUARED 0.198, read-out: LUCIFERASE INFECTION ASSAY - IC50): 6.4 µM
CCOc1cc(/C=C2\CN(C)C/C(=C\c3ccc(O)c(OCC)c3)C2=O)ccc1O |  | 6.75 | IC50 (HEPG2TOX_HILL_SLOPE 12.2, HEPG2TOX_R_SQUARED 0.94, PBLUC_HILL_SLOPE 1.92, PBLUC_R_SQUARED 0.794, read-out: LUCIFERASE INFECTION ASSAY - IC50): 2.16 µM
C(=N\Nc1nc2ccccc2[nH]1)/c1sc(N2CCCCC2)nc1-c1cccs1 |  | > 10 | IC50 (HEPG2TOX_HILL_SLOPE 5.76, HEPG2TOX_R_SQUARED 0.476, PBLUC_HILL_SLOPE 1.87, PBLUC_R_SQUARED 0.581, read-out: LUCIFERASE INFECTION ASSAY - IC50): 6.38 µM
Cc1ccc(-n2c(SC(C)C(=O)NCCc3cccs3)nnc2-c2ccccc2F)cc1 (stereo unspecified) |  | > 10 | IC50 (FFLUC_HILL_SLOPE 1.87, FFLUC_R_SQUARED 0.282, HEPG2TOX_HILL_SLOPE 0.0378, HEPG2TOX_R_SQUARED 0.0131, PBLUC_HILL_SLOPE 12.6, PBLUC_R_SQUARED 0.129, read-out: LUCIFERASE INFECTION ASSAY - IC50): > 10 µM
CCOc1ccc(OS(=O)(=O)c2ccc(-n3ncc(Cl)c(Cl)c3=O)cc2)cc1 |  | 3.34 | IC50 (FFLUC_HILL_SLOPE 1.43, FFLUC_R_SQUARED 0.409, HEPG2TOX_HILL_SLOPE 3.88, HEPG2TOX_R_SQUARED 0.973, PBLUC_HILL_SLOPE 4.23, PBLUC_R_SQUARED 0.659, read-out: LUCIFERASE INFECTION ASSAY - IC50): 1.99 µM
Cn1ccc2cc(-c3cnc4cnc(-c5ccccc5)cn34)ccc21 |  | 0.242 | IC50 (HEPG2TOX_HILL_SLOPE 1.21, HEPG2TOX_R_SQUARED 0.923, PBLUC_HILL_SLOPE 1.33, PBLUC_R_SQUARED 0.803, read-out: LUCIFERASE INFECTION ASSAY - IC50): 0.0465 µM

Reference: ChEMBL document CHEMBL4483862, “Open-source discovery of chemical leads for next-generation chemoprotective antimalarials” (2018)
